# Measurements: PubChem BioAssay (NCI)
#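 Five compound concentrations were applied to cells in 96-well plates for 48 hours; endpoints were derived by simple linear interpolation of the resulting dose-response curve. GI50 is the concentration that inhibits growth by half. The concentration for full growth arrest is given as TGI.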
# How the values were obtained:
# Experiment in all cases: inhibition of tumour cell growth, NCI panel, 48 h
# [1] = test system: SNB-19 CNS
# [2] = test system: HCC-2998 colon
# [3] = test system: SF-539 CNS
# [4] = test system: HS 578T breast
# [5] = test system: LOX IMVI melanoma
# [6] = test system: UO-31 renal
# [7] = test system: SF-295 CNS
# [8] = test system: SW-620 colon
# [9] = test system: T-47D breast
# [10] = test system: SR leukemia
SMILES,GI50 [1],TGI [1],GI50 [2],TGI [2],GI50 [3],TGI [3],GI50 [4],TGI [4],GI50 [5],TGI [5],GI50 [6],TGI [6],GI50 [7],TGI [7],GI50 [8],TGI [8],GI50 [9],TGI [9],GI50 [10],TGI [10]
CCCCC(CCCCCC(CCCC)NCc1ccc2c(c1)OCO2)NCc1ccc2c(c1)OCO2 (centres undefined),1.3 µM,2.59 µM,0.178 µM,0.322 µM,0.664 µM,1.48 µM,0.977 µM,2.92 µM,0.22 µM,0.581 µM,0.481 µM,1.16 µM,1.76 µM,3.4 µM,0.206 µM,0.437 µM,0.315 µM,0.933 µM,0.215 µM,0.495 µM
COC(=O)c1ccc2c(c1)C(=O)c1c-2n(CCCCl)c(=O)c2cc([N+](=O)[O-])ccc12,56.6 µM,> 100 µM,> 100 µM,> 100 µM,83.6 µM,> 100 µM,> 100 µM,> 100 µM,40.9 µM,> 100 µM,49.1 µM,> 100 µM,52 µM,> 100 µM,44.6 µM,> 100 µM,92 µM,> 100 µM,4.94 µM,> 100 µM
C=C1CC2(CC(c3ccccc3Cl)OC(c3ccccc3Cl)C2)OC1=O (centres undefined),,29.5 µM,,7.74 µM,,4.27 µM,,4.71 µM,,2.72 µM,,11.7 µM,,19.2 µM,,5.21 µM,,3.22 µM,,14.2 µM
CN(C)CCN1C(=O)c2cccc3cc([N+](=O)[O-])cc(c23)C1=O,,2.12 µM,,3.56 µM,,1.32 µM,,4.65 µM,,0.806 µM,,,,1.38 µM,,3.7 µM,,29.6 µM,,97 µM
O=C(CCl)NCCNc1nccc(Nc2ccc(S(=O)(=O)Nc3ccccn3)cc2)n1,2.42 µM,7.56 µM,4.8 µM,20.5 µM,1.85 µM,3.9 µM,5.23 µM,> 100 µM,1.75 µM,4.12 µM,2.77 µM,10 µM,2.39 µM,7.66 µM,2.49 µM,7.27 µM,1.9 µM,8.33 µM,2.45 µM,11.2 µM
CN(CCCCCl)P(=O)(OCCS(=O)(=O)CC(NC(=O)CCC(N)C(=O)O)C(=O)NC(C(=O)O)c1ccccc1)OCC1OC(n2ccc(N)nc2=O)C(O)C1O (centres undefined),45.8 µM,> 75 µM,28 µM,> 75 µM,> 75 µM,> 75 µM,> 36.8 µM,> 75 µM,45.5 µM,> 75 µM,8.17 µM,> 59.7 µM,> 58.8 µM,> 75 µM,> 44.9 µM,> 75 µM,23.1 µM,> 75 µM,1.39 µM,> 51.2 µM
CC(=O)OC1CCC2(C)C(CCC3C2CC(=O)C2(C)C3CC(N3CC3)C2C(C)=O)C1 (centres undefined),,63.4 µM,,32 µM,,37.3 µM,,40.9 µM,,29.3 µM,,46.4 µM,,51 µM,,> 100 µM,,65.2 µM,,64.7 µM
